Test results published in patent US9408793B2, “Selective compounds inhibiting CYP26A1 useful in cosmetic and pharmaceutical compositions” (GALDERMA RESEARCH & DEVELOPMENT, priority 2012, dated 2016).

Columns and labels:
human CYP26A1 enzyme = target: T1, human CYP26A1 enzyme (Homo sapiens, UniProt O43174); assay: Cell test, HeLa cells overexpressing human CYP26A1, metabolism of radiolabelled retinoic acid (3H-RA); type: cell-based; conditions: for Isoform activity in words: CYP26A1 versus CYP26B1, HeLa cell test; for AC50: HeLa cells overexpressing human CYP26A1, 3 h incubation with 3H-RA, mean of two experiments; for CYP26B1/CYP26A1 (selectivity ratio of mean AC50): ratio of AC50 CYP26B1 to AC50 CYP26A1
T1 construct: expressed in transfected cells; host or cells: HeLa cells
T1 sequence (O43174 1-497): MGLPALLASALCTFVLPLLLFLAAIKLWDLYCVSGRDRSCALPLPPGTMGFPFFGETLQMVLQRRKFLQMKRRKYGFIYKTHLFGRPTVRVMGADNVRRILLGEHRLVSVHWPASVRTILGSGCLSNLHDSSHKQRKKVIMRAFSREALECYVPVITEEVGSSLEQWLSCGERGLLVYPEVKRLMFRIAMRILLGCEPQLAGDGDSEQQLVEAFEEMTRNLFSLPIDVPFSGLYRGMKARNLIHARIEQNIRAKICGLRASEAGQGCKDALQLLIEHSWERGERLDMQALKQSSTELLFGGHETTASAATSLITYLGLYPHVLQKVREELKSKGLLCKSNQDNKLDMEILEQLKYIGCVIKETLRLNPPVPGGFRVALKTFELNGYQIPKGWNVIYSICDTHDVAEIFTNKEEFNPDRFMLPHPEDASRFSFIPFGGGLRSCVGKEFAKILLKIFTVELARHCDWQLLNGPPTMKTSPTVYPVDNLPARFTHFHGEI
Protocol: (§1) A cell test using HeLa cells overexpressing either the human CYP26A1 enzyme or the human CYP26B1 enzyme, similar to that described in White et al.(Proc Natl Acad Sci U S A. 2000 Jun 6; 97(12): 6403-8), was used. […] After the incubation time of 3 h, the reaction was stopped and an extraction phase was carried out in order to separate the aqueous and organic layers. The amount of radioactivity present in the aqueous layer was then measured as an indicator of the amount of RA which was metabolized.
(§2) A first experiment using 3 different concentrations of compounds according to the invention (0.1, 1 and 10 μM) was carried out in order to evaluate the inhibitory activity of the compounds. A second test was then carried out with a wide range of concentrations (0.01, 0.1, 0.5, 1, 5 and 10 μM).

CYP26B1 isoform = target: T2, CYP26B1 isoform (Homo sapiens, UniProt Q9NR63); conditions: background statement; cited from earlier work
T2 sequence (Q9NR63 1-512): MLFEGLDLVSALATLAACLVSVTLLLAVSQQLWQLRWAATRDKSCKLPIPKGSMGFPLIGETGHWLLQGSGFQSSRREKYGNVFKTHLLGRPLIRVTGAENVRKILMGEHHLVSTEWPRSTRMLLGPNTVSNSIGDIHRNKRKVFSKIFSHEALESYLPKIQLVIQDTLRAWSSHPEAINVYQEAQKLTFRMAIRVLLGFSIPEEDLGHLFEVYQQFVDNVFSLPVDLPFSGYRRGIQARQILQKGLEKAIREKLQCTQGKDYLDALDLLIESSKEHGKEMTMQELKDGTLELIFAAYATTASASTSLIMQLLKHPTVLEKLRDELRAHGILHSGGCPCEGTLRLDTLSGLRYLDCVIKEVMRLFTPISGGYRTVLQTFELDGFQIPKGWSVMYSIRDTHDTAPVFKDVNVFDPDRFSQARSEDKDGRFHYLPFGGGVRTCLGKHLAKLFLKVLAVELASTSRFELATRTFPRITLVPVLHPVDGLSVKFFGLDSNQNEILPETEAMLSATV

human CYP26B1 enzyme = target: T3, human CYP26B1 enzyme (Homo sapiens, UniProt Q9NR63); assay: Cell test, HeLa cells overexpressing human CYP26B1, metabolism of radiolabelled retinoic acid (3H-RA); type: cell-based; conditions: 3 h incubation with 3H-RA, mean of two experiments
T3 construct: expressed in transfected cells; host or cells: HeLa cells
T3 sequence (Q9NR63 1-512): T2 sequence (Q9NR63 1-512)
Protocol: as §1
as §2, with “μM). The results obtained during these two tests are similar.” for “μM).”
The following table lists the mean of the AC50 values obtained over these two experiments.

stratum corneum = assay: Measurement of the thickness of the stratum corneum in Fuzzy rats; type: in vivo, rat; conditions: for Thickness of the stratum corneum (μm) / Thickness of the stratum corneum relative to the carrier: male Fuzzy rats, topical, 24 days after the treatment
Protocol: Male Fuzzy rats are separated into four batches each comprising five rats. A topical treatment is carried out on each batch by administering, respectively, a carrier acting as a control, a dose of 0.000001% of retinol, a dose of 0.1% of retinol and a dose of 0.3% of a compound according to the invention corresponding to Example 1.
24 days after the treatment, the rats are euthanized and a 10 μm section of skin is sampled in order to perform a biopsy. A 1M NaOH solution is added to each section in order to soften the stratum corneum. The photos under a microscope are taken in a time period of 2 minutes after the addition of the 1M NaOH solution.
The table below presents the results on the thickness of the stratum corneum for the various batches.

AC50 (human CYP26A1 enzyme) [nM] | CYP26B1/CYP26A1 (selectivity ratio of mean AC50) (human CYP26A1 enzyme) | AC50 (human CYP26B1 enzyme) [nM] | SMILES | Isoform activity in words (human CYP26A1 enzyme) | Activity on the CYP26B1 isoform (CYP26B1 isoform) | Thickness of the stratum corneum (μm) (stratum corneum; dose 0.3%) | Thickness of the stratum corneum relative to the carrier (stratum corneum; dose 0.3%) | Photographs of the keratinous layer (FIGS. 2 and 3), result in words (stratum corneum; rats treated with 0.3% versus carrier) | Thickness of the stratum corneum (μm) (stratum corneum; dose 0.000001%) | Thickness of the stratum corneum relative to the carrier (stratum corneum; dose 0.000001%) | Thickness of the stratum corneum (μm) (stratum corneum; dose 0.1%) | Thickness of the stratum corneum relative to the carrier (stratum corneum; dose 0.1%)
4 | 16.82 | 64 | CCC(CC)C(c1ccc(Nc2nc3ccccc3s2)cc1)n1cncn1 (centres unmarked) [Rambazole] | active on the inhibition of the activity of the two isoforms | about 62 nM |  |  |  |  |  |  | 
 |  | 320 | Clc1cccc(C(c2ccc3[nH]cnc3c2)n2ccnc2)c1 (centres unmarked) [Liarozole] | more active on CYP26B1 than on CYP26A1 |  |  |  |  |  |  |  | 
190 | 261.50 | 50300 | CC1(C)CCC(C)(C)c2cc(S(=O)(=O)CCc3ccc(C(=O)O)cc3)ccc21 [Compound 1, 4-[2-(5,5,8,8-Tetramethyl-5,6,7,8-tetrahydronaphthalene-2-sulphonyl)ethyl]benzoic acid] |  |  | 24.07 | 0.57 | decrease in the thickness of the stratum corneum |  |  |  | 
 |  |  | CC1=C(/C=C/C(C)=C/C=C/C(C)=C/CO)C(C)(C)CCC1 [Retinol] |  |  |  |  |  | 41.60 | 0.98 | 26.24 | 0.62
